From patent US6797700B2, “Antithrombotic azacycloalkylalkanoyl peptides and pseudopeptides” (Aventis Pharmaceuticals, Inc., priority 1993, dated 2004)
Where two headings read alike, the source gives them in different places.

Legend:
[1] = test system: ADP-induced platelet aggregation in canine platelet rich plasma; experiment: Inhibition of ADP-Induced ex-vivo Platelet Aggregation after oral administration; assay type: in vivo, mongrel dogs; conditions: Canis lupus familiaris, Platelet, dog
Procedure: Inhibition of ADP-Induced ex-vivo Platelet Aggregation
Control blood samples are obtained 5-10 minutes prior to administration of the test compound in mongrel dogs weighing from 10 to 20 kg. The compound is administered intragasticly, via aqueous gavage, or orally, via gelatin capsule. Blood samples (5 ml) are then obtained at 30 minute intervals for 3 hours, and at 6, 12, and 24 hours after dosing. Each blood sample is obtained by venipuncture of the cephalic vein and is collected directly into a plastic syringe containing one part 3.8% trisodium citrate to nine parts blood.
Ex vivo Canine Platelet Aggregation
The blood samples are centrifuged at 1000 rpm for 10 minutes to obtain platelet rich plasma (PRP). After removal of the PRP, the sample is centrifuged for an additional 10 minutes at 2000 rpm to obtain platelet poor plasma (PPP). Platelet count in the PRP is determined by using a Coulter Counter (Coulter Electronics, Hialeah, Fla.). If the concentration of platelets in the PRP is greater than 300,000 platelets/μl, then the PRP is diluted with PPP to adjust the platelet count to 300,000 platelets/μl. Aliquots of PRP (250 μl) are then placed in siliconized glass cuvettes (7.25×55 mm, Bio/Data Corp, Horsham, Pa.). Epinephrine (final concentration of 1 μM) is then added to the PRP, which is incubated for one minute at 37° C. A stimulator of platelet aggregation, ADP at a final concentration of 10 μM, is then added to the PRP. Platelet aggregation is monitored spectrophotometrically utilizing a light transmission aggregometer (Bio/Data Platelet Aggregation Profiler, Model PAP-4, Bio/Data Corp, Horsham, Pa.). For compound to be tested, the rate of change (slope) of light transmittance and the maximum light transmittance (maximum aggregation) is recorded in duplicate. Platelet aggregation data are reported as the percent decrease (mean±SEM) in slope or maximum aggregation as compared to data obtained from control PRP, which is prepared from blood samples obtained prior to administration of the test compound.

[2] = test system: fixed activated platelets; experiment: Platelet Aggregation Assay (fixed-activated platelets, fibrinogen-mediated aggregation); assay type: cell-based; conditions: aggregation initiated by human fibrinogen 250 μg/ml, read-out: Inhibition of Fixed Platelet Aggregation (IC50 μM)
Procedure: Preparation of Fixed-Activated Platelets
Platelets are isolated from human platelet concentrates using the gel-filtration technique as described by Marguerie, G. A., et al., J. Biol. Chem. 254, 5357-5363 (1979) and Ruggeri, Z. M., et al., J. Clin. Invest. 72, 1-12 (1983). The platelets are suspended at a concentration of 2×10^8 cells/ml in a modified calcium-free Tyrode's buffer containing 127 mM sodium chloride, 2 mM magnesium chloride, 0.42 mM Na2HPO4, 11.9 mM NaHCO3, 2.9 mM KCl, 5.5 mM glucose, 10 mM HEPES, at a pH of 7.35 and 0.35% human serum albumin (HSA). These washed platelets are activated by addition of human a-thrombin at a final concentration of 2 units/ml, followed by thrombin inhibitor I-2581 at a final concentration of 40 μM. To the activated platelets is added paraformaldehyde to a final concentration of 0.50% and this incubated at room temperature for 30 minutes. The fixed activated platelets are then collected by centrifugation at 650×g for 15 minutes. The platelet pellets are washed four times with the above Tyrode's-0.35% HSA buffer and resuspended to 2×10^8 cells/ml in the same buffer.
Platelet Aggregation Assay
The fixed activated platelets are incubated with a selected dose of the compound to be tested for platelet aggregation inhibition for one minute and aggregation initiated by addition of human fibrinogen to a final concentration of 250 μg/ml. A platelet aggregation profiler Model PAP-4 is used to record the platelet aggregation. The extent of inhibition of aggregation is expressed as the percentage of the rate of aggregation observed in the absence of inhibitor.

[3] = 1 h after dosing, read-out: % Inhibition of ex-vivo Platelet Aggregation After Oral Administration, 1 h
[4] = 3 h after dosing, read-out: % Inhibition of ex-vivo Platelet Aggregation After Oral Administration, 3 h
[5] = 6 h after dosing, read-out: % Inhibition of ex-vivo Platelet Aggregation After Oral Administration, 6 h
[6] = 12 h after dosing, read-out: % Inhibition of ex-vivo Platelet Aggregation After Oral Administration, 12 h
[7] = 24 h after dosing, read-out: % Inhibition of ex-vivo Platelet Aggregation After Oral Administration, 24 h

SMILES | IC50 ([2]; Homo sapiens, Platelet) | IC50 ([2]; fixed activated human platelets) | inhibition at 10 mg/kg [1, 3] | inhibition at 10 mg/kg [1, 4] | inhibition at 10 mg/kg [1, 5] | inhibition at 5 mg/kg [1, 3] | inhibition at 5 mg/kg [1, 4] | inhibition at 5 mg/kg [1, 5] | inhibition at 5 mg/kg [1, 6] | inhibition at 5 mg/kg [1, 7]
CCN(CC(=O)N[C@@H](CC(=O)O)C(=O)N[C@H](C(=O)O)C(C)C)C(=O)CCCC1CCNCC1 [Example 2, N-[N-[N-(4-(piperidin-4-yl)butanoyl)-N-ethylglycyl]aspartyl]valine] | 0.027 µM |  | 90% | 60% | < 20% |  |  |  |  | 
CCN(CC(=O)NC(CC(=O)O)C(=O)NC(Cc1ccccc1)C(=O)O)C(=O)CCCC1CCNCC1 (centres unmarked) [Example 3, N-[N-[N-(4-piperidin-4-yl)-N-ethylglycyl]aspartyl]phenylalanine] | 0.064 µM |  | 40% | < 20% |  |  |  |  |  | 
CCN(CC(=O)NC(CC(=O)O)C(=O)NC(C(=O)O)C(C)C)C(=O)CCCC1CCNCC1 (centres unmarked) [Example 4] | 0.72 µM |  | 90% | 50% | < 20% |  |  |  |  | 
CCN(CC(=O)NC(CC(=O)O)C(=O)NC(CC(C)(C)C)C(=O)O)C(=O)CCCC1CCNCC1 (centres unmarked) [Example 5] | 0.082 µM |  | 100% | 90% | 35% |  |  |  |  | 
CCCCC(NC(=O)C(CC(=O)O)NC(=O)CN(CC)C(=O)CCCC1CCNCC1)C(=O)O (centres unmarked) [Example 6] | 0.13 µM |  | 80% | 20% |  |  |  |  |  | 
CCN(CC(=O)NC(CC(=O)O)C(=O)NC(Cc1cccc2ccccc12)C(=O)O)C(=O)CCCC1CCNCC1 [Example 7, N-[N-[N-(4-(piperidin-4-yl)butanoyl)-N-ethylglycyl]aspartyl]-L-b-naphth-1-yl alanine] | 0.11 µM |  |  |  |  | 30% | < 20% |  |  | 

More lines, main results first:

IC50 ([2]; Homo sapiens, Platelet) | IC50 ([2]; fixed activated human platelets) | SMILES | inhibition at 10 mg/kg [1, 3] | inhibition at 10 mg/kg [1, 4] | inhibition at 10 mg/kg [1, 5] | inhibition at 5 mg/kg [1, 3] | inhibition at 5 mg/kg [1, 4] | inhibition at 5 mg/kg [1, 5] | inhibition at 5 mg/kg [1, 6] | inhibition at 5 mg/kg [1, 7]
0.064 µM |  | CCOC(=O)C(CC1CCCCC1)NC(=O)C(CC(=O)O)NC(=O)CN(CC)C(=O)CCCC1CCNCC1 [Example 11, N-[N-[N-(4-(piperidin-4-yl)butanoyl)-N-ethylglycyl]aspartyl]-L-b-cyclohexyl alanine, ethyl ester] |  |  |  | 100% | 100% | 60% | 37% | 
0.097 µM |  | CCN(CC(=O)NC(CC(=O)O)C(=O)NC(CC1CCCCC1)C(N)=O)C(=O)CCCC1CCNCC1 [Example 12, N-[N-[N-(4-(piperidin-4-yl)butanoyl)-N-ethylglycyl]aspartyl]-L-b-cyclohexyl alanine amide] |  |  |  | 100% | 100% | 100% | 98% | 50%
 | 0.019 µM | CCN(CC(=O)NC(CC(=O)O)C(=O)NC(CC1CCCC2CCCCC21)C(=O)O)C(=O)CCCC1CCNCC1 [Example 14, N-[N-[N-(4-(piperidin-4-yl)butanoyl)-N-ethylglycyl]aspartyl]-L-b-decahydronaphth-1-yl alanine] |  |  |  | 100% | 100% | 100% | 100% | 95%
0.072 µM |  | CCN(CC(=O)N[C@@H](CC(=O)O)C(=O)NCCC1CCCCC1)C(=O)CCCC1CCNCC1 [Example 15, 2-cyclohexyl-N-[N-[N-(4-(piperidin-4-yl)butanoyl)-N-ethylglycyl]aspartyl]-ethylamine] |  |  |  | 35% | 18% |  |  | 
